Measurements taken from patent publication US12427152B2, “HDAC inhibitors for use with NK cell based therapies” (Viracta Therapeutics, Inc., priority 2016, dated 2025).

Experiments:
HDAC [1] = experiment: Immunoblot for acetyl-lysine 9 on Histone H3 (HDAC activity) in PC3 cells; type: cell-based; details: 657 nM, 2.5 h
Method: (§1) VRx-3996 was tested for its ability to inhibit HDAC activity in PC3 (prostate) and MDA-MB-231 (triple negative breast cancer) carcinoma cells. Cells were exposed to for 2.5 h to VRx-3996 (657 nM), or DMSO prior to being examined for the presence of acetyl-lysine 9 on Histone H3 by immunoblot.

HDAC [2] = experiment: Immunoblot for acetyl-lysine 9 on Histone H3 (HDAC activity) in MDA-MB-231 cells; type: cell-based; details: 657 nM, 2.5 h
Method: as §1

PC3 cells [3] = experiment: Cell surface phenotype of PC3 cells by flow cytometry; type: cell-based; details: 657 nM, 2.5 h/day, 4 days
Method: (§2) After treatment with DMSO (vehicle) or VRx-3996, PC3 or […] cells were analyzed for their cell surface phenotype. Cells were exposed to CHR-3996 daily (657 nM, 2.5 h/day) or DMSO control for 4 consecutive days; on day 5, cells were examined by flow cytometry for cell-surface expression of proteins associated with immune recognition, stimulation, and inhibition. Overall VRx-3996 led to several changes in both cell lines.

MDA-MB-231 cells = experiment: Cell surface phenotype of MDA-MB-231 cells by flow cytometry; type: cell-based; details: 657 nM, 2.5 h/day, 4 days
Method: as §2

PC3 cells [4] = experiment: NK cell lysis assay (In-111 release) with PC3 cells as target; type: cell-based; details: 657 nM, 2.5 h/day, 4 days, targets on day 5, primary NK cells and HaNK
Method: Tumor cell lines PC3 and MDA-MB-231, treated with VRx-3996, were tested for their ability to be killed by different primary NK cells and the NK cell line HaNK (NK cells with a high-affinity Fc receptor which has a mutation at 158V of human FcγRIIIa). PC3 and MDA-MB-231 cells were exposed to DMSO or CHR-3996 daily (657 nM, 2.5 h/day) for 4 consecutive days, prior to being used as targets on day 5 for direct NK killing in an overnight standard In-111 release lysis assay. Primary NK cells from human PBMCs of 2 healthy donors (isolated by negative selection), and NKs rested for 24 h at 37 C° and 5% CO2, or pre-exposed to ALT803 (25 ng/ml) for 24 h, were used. HaNK cells were used 24 h post 10 Gy radiation exposure. NK cells were plated and varying effector to target ratios (E:T) against PC3 cells (FIG. 3) and MDA-MB-231 cells (FIG. 4).

[5] = system: PBMCs from patients with metastatic breast cancer; experiment: Flow cytometry of immune cell subsets in PBMCs of patients with metastatic breast cancer; type: cell-based, human; details: 657 nM, 2.5 h/day, 2 days
Method: Peripheral blood mononuclear cells (PBMCs) from 7 patients with metastatic breast cancer were exposed to VRx-3996 daily (657 nM, 2.5 h/day) or DMSO control for 2 consecutive days and then examined by flow cytometry for different immune cell subsets analyzed: 9 standard immune cell subsets, 114 subsets relating to maturation/function.

[6] = PBMCs of patients with metastatic cancer

## O=C(NO)c1cnc(N2CC3C(C2)C3NCc2ccc3cc(F)ccc3n2)nc1 (centres unmarked) [VRx-3996, 2-(6-{[(6-Fluoroquinolin-2-yl)methyl]amino}-3-azabicyclo[3.1.0]hex-3-yl)-N-hydroxypyrimidine-5-carboxamide]
HDAC [1]
  Histone H3 deacetylation (acetyl-lysine 9 on Histone H3): inhibits Histone H3 deacetylation
HDAC [2]
  Histone H3 deacetylation (acetyl-lysine 9 on Histone H3): inhibits Histone H3 deacetylation
PC3 cells [3]; flow cytometry day 5
  CD155 % Pos: 95.9%
  CD155 GeoMFI: 742
  EGFR % Pos: 75.6%
  EGFR GeoMFI: 291
  Fas % Pos: 35.3%
  Fas GeoMFI: 79
  HLA-A, B, C % Pos: 94.4%
  HLA-A, B, C GeoMFI: 1198
  ICAM-1 % Pos: 66.8%
  ICAM-1 GeoMFI: 129
  MIC-A/B % Pos: 48%
  MIC-A/B GeoMFI: 124
  PD-L1 % Pos: 28%
  PD-L1 GeoMFI: 43
  ULBP-3 % Pos: 7.6%
  ULBP-3 GeoMFI: 31
PC3 cells [3]; vs DMSO
  % change CD155 % Pos: <5%
  % change CD155 GeoMFI: 50%
  % change EGFR % Pos: −15%
  % change EGFR GeoMFI: −33%
  % change Fas % Pos: −32%
  % change Fas GeoMFI: −7%
  % change HLA-A, B, C % Pos: <5%
  % change HLA-A, B, C GeoMFI: 77%
  % change ICAM-1 % Pos: <5%
  % change ICAM-1 GeoMFI: 32%
  % change MIC-A/B % Pos: −20%
  % change MIC-A/B GeoMFI: 7%
  % change PD-L1 % Pos: −39%
  % change PD-L1 GeoMFI: −27%
  % change ULBP-3 % Pos: −88%
  % change ULBP-3 GeoMFI: −75%
MDA-MB-231 cells; flow cytometry day 5
  CD122 % Pos: 81.9%
  CD122 GeoMFI: 735
  CD155 % Pos: 96.1%
  CD155 GeoMFI: 2937
  EGFR % Pos: 81.9%
  EGFR GeoMFI: 735
  Fas % Pos: 27.3%
  Fas GeoMFI: 190
  HLA-A, B, C % Pos: 96.2%
  HLA-A, B, C GeoMFI: 2470
  ICAM-1 % Pos: 96.2%
  ICAM-1 GeoMFI: 8554
  MIC-A/B % Pos: 94.6%
  MIC-A/B GeoMFI: 2880
  PD-L1 % Pos: 80%
  PD-L1 GeoMFI: 303
  TRAIL-R1(DR4) % Pos: 27.1%
  TRAIL-R1(DR4) GeoMFI: 107
  ULBP-2/5/6 % Pos: 75.9%
  ULBP-2/5/6 GeoMFI: 365
MDA-MB-231 cells; vs DMSO
  % change CD122 % Pos: −10%
  % change CD122 GeoMFI: 119%
  % change CD155 % Pos: <5%
  % change CD155 GeoMFI: 197%
  % change EGFR % Pos: −10%
  % change EGFR GeoMFI: 119%
  % change Fas % Pos: −23%
  % change Fas GeoMFI: 184%
  % change HLA-A, B, C % Pos: <5%
  % change HLA-A, B, C GeoMFI: 142%
  % change ICAM-1 % Pos: <5%
  % change ICAM-1 GeoMFI: 546%
  % change MIC-A/B % Pos: 6%
  % change MIC-A/B GeoMFI: 411%
  % change PD-L1 % Pos: <5%
  % change PD-L1 GeoMFI: 175%
  % change TRAIL-R1(DR4) % Pos: 293%
  % change TRAIL-R1(DR4) GeoMFI: 1290%
  % change ULBP-2/5/6 % Pos: 6.5%
  % change ULBP-2/5/6 GeoMFI: 244%
PC3 cells [4]
  Sensitization of PC3 cells to NK lysis: Sensitizes PC3 Cells to NK Lysis
[5]; [6]
  FoxP3+ regulatory T cells in PBMCs: Reduces
  FoxP3 in T regulatory subsets (FACS, FIGS. 5A and 5B): reduced
[5]; PBMCs, 7 patients
  B cell median frequency: 6.37 % of PBMC
  B cells PDL1+ median frequency: 0.55 % of PBMC
  CD4 CM PD1+ median frequency: 3.24 % of PBMC
  CD4 median frequency: 42.36 % of PBMC
  CD8 Tim3+ median frequency: 0.06 % of PBMC
  CD8 median frequency: 17.67 % of PBMC
  CD8 naive median frequency: 4.99 % of PBMC
  CD49d neg Treg median frequency: 5.66 % of CD4
  ICOS+ CD4 median frequency: 1.26 % of PBMC
  ICOS+ PD-1+ CD4 median frequency: 0.5 % of PBMC
  ICOS+ Treg median frequency: 2.31 % of CD4
  MDSC CD16+ median frequency: 2.19 % of PBMC
  MDSC median frequency: 5.32 % of PBMC
  NK median frequency: 3.46 % of PBMC
  NKT PD1+ median frequency: 0.75 % of PBMC
  NKT median frequency: 4.24 % of PBMC
  PD-1+ Treg median frequency: 2.31 % of CD4
  Total Treg median frequency: 9.39 % of CD4
  Treg CD49d neg median frequency: 0.27 % of PBMC
  Treg ICOS+ median frequency: 0.14 % of PBMC
  Treg median frequency: 0.47 % of PBMC
  cDC median frequency: 0.11 % of PBMC
  dnMDSC PDL1+ median frequency: 0.07 % of PBMC
  dnMDSC median frequency: 0.36 % of PBMC
  mMDSC CD16+ median frequency: 2.08 % of PBMC
  mMDSC median frequency: 4.15 % of PBMC
  pDC median frequency: <0.01 % of PBMC
